Results on 2 molecules are retold here after paper PMC8198038, “In Vitro Evaluation of Antiproliferative Properties of Novel Organotin(IV) Carboxylate Compounds with Propanoic Acid Derivatives on a Panel of Human Cancer Cell Lines” (Molecules, 2021).

In assay [1] the test system is HepG2 (hepatocellular cancer) cells. Description: CV (crystal violet) assay, HepG2 cells. The format is cell-based, human. The conditions noted are these: CV assay, 48 h incubation; read-out: IC50 (mean ± SD), HepG2, CV. The method, then:
(§1) The cell proliferations of ligand precursors and organotin(IV) compounds were evaluated with the aid of MTT (3-(4,5-dimethylthiazol-2-yl)-2,5-12 diphenyltetrazolium bromide) and CV (crystal violet) assays toward prostate (PC-3), colon (HT-29), breast (MCF-7) and hepatic (HepG2) cancer cell lines, and normal mouse embryonic fibroblast cells (NIH 3T3). The cells were cultivated in T75 flasks containing 10 mL of complete medium and kept at 37 °C and 5% CO2 […]. The nutrient medium was RPMI-1640 (PAA Laboratories) supplemented with 10% foetal bovine serum, L-glutamine, and penicillin/streptomycin (Sigma). Afterward, 5.000 cells of PC-3 and MCF-7 and 1.500 cells of HT-29 and HepG2 were transferred into 96 well-plates and used for MTT and CV assays. For microscopy investigations as well as FACS measurements (except for ROS/RNS measurements), MCF-7 cells were seeded overnight in 6-well plates (150,000 cells/well) in […] of complete medium. […] In all assays, control cells were untreated MCF-7 cells incubated for the same time period as treated cells and treated with appropriate reagents in various assays. BD FACS Aria III was used for flow cytometry experiments and results were analysed using BD FACSDiva software (BD Biosciences, Heidelberg, Germany) and Cyflogic (V 1.2.1, CyFlo Ltd., Turku, Finland). A fluorescence microscope Invitrogen EVOS FL 2 Auto 2 Cell Imaging System was used for visualization of the cells as well as for detection of fluorescence in the cells.
(§2) Ligands HL1‒HL3, organotin(IV) compounds, and cisplatin were investigated in 9 different concentrations (100, 50, 10, 5, 1, 0.5, 0.1, 0.05, 0.01 μM). Using the complete medium, each stock solution of the test compounds (20 mM in DMSO) was diluted to obtain the working solution. The final concentration of DMSO never overstepped 0.5%, which is non-toxic to the cells. Three technical replicates were performed for each concentration. The treated cells were incubated for 48 h at 37 °C under 5% CO2 and the viability of the cells was determined using MTT and CV assays according to the literature procedure. The IC50 values, defined as 50% inhibitory concentration, were calculated with a four-parameter logistic function and presented in a mean. All experiments were performed in triplicate.

The subject of assay [2] is NIH3T3 (normal mouse embryonic fibroblast) cells. Description: MTT assay, NIH3T3 cells. Type of assay: cell-based. The settings on record: MTT assay, 48 h incubation, normal cells; read-out: IC50 (mean ± SD), NIH3T3, MTT. The method, then: as §1, §2
Assay [3] concerns HepG2 (hepatocellular cancer) cells. Description: MTT assay, HepG2 cells. The format is cell-based, human. The conditions noted are these: MTT assay, 48 h incubation; read-out: IC50 (mean ± SD), HepG2, MTT. The method, then:
as §1, §2

Assay [4] has as its system HT-29 (human colorectal adenocarcinoma) cells. Description: MTT assay, HT-29 cells. Type of assay: cell-based. The settings on record: MTT assay, 48 h incubation; read-out: IC50 (mean ± SD), HT-29, MTT. The method, then:
as §1, §2

Assay [5] has as its system NIH3T3 (normal mouse embryonic fibroblast) cells. Description: CV (crystal violet) assay, NIH3T3 cells. The format is cell-based. The conditions noted are these: CV assay, 48 h incubation, normal cells; read-out: IC50 (mean ± SD), NIH3T3, CV. The method, then: as §1, §2
The subject of assay [6] is PC-3 (human prostate cancer) cells. Description: CV (crystal violet) assay, PC-3 cells. The conditions noted are these: CV assay, 48 h incubation; read-out: IC50 (mean ± SD), PC-3, CV. Type of assay: cell-based. The method, then:
as §1, §2

Assay [7] has as its system MCF-7 cells. Description: ROS/RNS (DHR) and NO (DAF-FM) production, flow cytometry. The format is cell-based, human. The conditions noted are these: 48 h, IC50 concentration. The source says:
Reactive oxygen (ROS) and nitrogen species (RNS) are natural by-products of the aerobic metabolism in cells. At physiological concentrations, they play a significant role in regulating numerous cellular processes. On the other hand, it is well-known that the reactive oxygen (O2^•−, H2O2, OH^•−) and nitrogen species (NO) are highly reactive molecules that easily damage cells by interacting with biomolecules such as proteins, lipids, carbohydrates, and nucleic acids, thus triggering different pathological conditions (inflammation, cardiovascular disorders, neurodegenerative diseases, and the formation of cancer cells).
For the investigation of ROS/RNS production the cells from the T25 flask were collected by applying 1 mL of trypsin and diluted with 9 mL of complete medium. Using 1 mL of DHR (dihydrorhodamine) working solution the cells were stained and incubated at 37 °C and 5% CO2 for 10 min. The staining process was stopped by applying 4 mL of complete medium, then the solution was centrifuged for 3 min at 1000 rpm and the supernatant was discarded. The cells were resuspended in complete medium (1 mL/well) and seeded in a 6 well plate. […] The prepared cells were analysed by flow cytometry.
The cells were washed with PBS and then treated with 1 mL of DAF-FM (4-amino-5-methylamino-2,7′-diflurofluorescin diacetate) working solution. […] The prepared cells were analysed by flow cytometry.

The test system of assay [8] is MCF-7 cells. Description: Cell cycle analysis (DAPI, flow cytometry). Type of assay: cell-based, human. The settings on record: 48 h, IC50 dose. The method, then: The mode of action was further investigated by analysing the effects of Ph3SnL1 and cisplatin on the cell cycle phase distribution of MCF-7 cells. This was evaluated by cytofluorimetric analysis using DAPI staining. […] While cisplatin acts on DNA (among other effects), the lipophilic cationic nature of triphenyltin(IV) may guide it preferentially to mitochondria to intervene with cells’ energy metabolism.
The Falcon tubes were centrifuged for 3 min at 1000 rpm and the supernatant was discarded. Afterwards, the cells were washed with 1 mL of PBS, centrifuged for 3 min at 1000 rpm and the supernatant was discarded. The cells were resuspended in 300 μL of ice-cold PBS buffer and then fixed by adding them dropwise to 700 μL of ice-cold absolute ethanol. The cells were stored for 24 h at 4 °C, then centrifuged for 3 min at 1000 rpm, washed with PBS and stained with 1 mL of DAPI (4′,6-diamidino-2-phenylindole) working solution [39]. The prepared cells were incubated at room temperature for 10 min and analysed by flow cytometry.

On to `O=C(CCc1nc(-c2ccccc2)c(-c2ccccc2)o1)[O][Sn]([c]1ccccc1)([c]1ccccc1)[c]1ccccc1` [Ph3SnL1, (3-(4,5-Diphenyloxazol-2-yl)propanoato)triphenyltin(IV)], for which the IC50 in assay [1] amounted to 0.366 ± 0.051 µM; in assay [2], 2.17 ± 0.53 µM; in assay [3] it was 0.146 ± 0.028 µM; in assay [4], 0.237 ± 0.012 µM; in assay [5], 2.66 ± 0.52 µM; in assay [6] it was 0.556 ± 0.038 µM. The “production of ROS/RNS species” value in the assay with MCF-7 cells [7] was “does not affect the production of ROS and RNS”. In the assay on MCF-7 cells [8], the “cell cycle phase distribution” value is recorded as “does not lead to any significant changes in the cell cycle distribution”.
Take `N.N.[Cl][Pt][Cl]` [cisplatin, reference compound]: the half-inhibitory concentration (IC50) stood at 3.65 ± 0.35 µM in assay [1]; 8.81 ± 0.51 µM in assay [2]; 3.47 ± 0.46 µM in assay [3]; 14.2 ± 0.73 µM in assay [4]; 14.2 ± 1.95 µM in assay [5]; 13 ± 0.45 µM in assay [6]. Further, the “production of ROS/RNS species” value in the assay on MCF-7 cells [7] was “elevates the production of both reactive oxygen and nitrogen species”. Further, in the assay with MCF-7 cells [8], the “cell population in G1/G0 phase” value is “considerable decrease”. For the same molecule, the “cell population in S and G2/M phases” value in the assay on MCF-7 cells [8] was “increase”. In the assay on MCF-7 cells [8], the “population of cells in the sub-G1 phase” value is reported as “did not lead to any observable changes”.
